Measurements taken from patent US11806393B2, “Flavivirus peptide sequences, epitopes, and methods and uses thereof” (priority 2017, dated 2023).
Ends that are not written are not given here.

Experiments:
[1] = tested on: splenocytes pulsed with ZIKV-derived peptides (target cells); type: in vivo, mouse; details: LysMCre+IFNARfl/fl mice infected with MR766 or FSS13025, day 7; targets pulsed with the three peptides; 12 h
Procedure: LysMCre^+IFNAR^fl/fl and WT mice were infected with 10^4 FFU of MR766 or FSS13025. Seven days post-infection, splenocytes were harvested from naïve donor mice, followed by stimulation with a pool of H-2b-restricted ZIKV-peptides (PrM169-177(SEQ ID NO: 19), E297-305 (SEQ ID NO: 25), N552783-2792 (SEQ ID NO: 20)) referred to as “Target Cells” or with DMSO for 3 h at 37° C. The cells were washed and labeled with CSFE (Invitrogen) in PBS/0.1% BSA for 10 min at 37° C. Target cells were labeled with 1 μM CSFE (High) or 100 nM CSFE (Low) for unstimulated cells. After washing, 10^7 of labeled cells (5×10^6 of each population) were injected intravenously into MOCK and infected recipients. Splenocytes from recipients were harvested 4 (Wild type) or 12 h later (LysMCre^+IFNAR^fl/fl) and analyzed by flow cytometry. The percentage of killing is calculated as followed: 100−(% ZIKV-peptide stimulated in infected mice/% DMSO-stimulated in infected mice)/(% ZIKV-peptide stimulated in naïve mice/% DMSO-stimulated in naïve mice)×100).
The following results are with respect to FIG. 7A to FIG. 7E, where WT C57BL/6 mice treated with type I IFN receptor-blocking antibody on day 1 prior to infection were inoculated with 10^4 FFU of ZIKV strain MR766 (n=3) or FSS (n=3), or injected with 10% FBS/PBS (MOCK, n=2). […] Four independent experiments for MR766 (n=8 mice per experiment) and two independent experiments for FSS13025 (n=8 mice per experiment) were performed in triplicate for each peptide. The data are expressed as the mean of spot forming cells (SFC) per 10^6 CD8^+ T cells. One-way ANOVA was used to compare the mean of each peptide with the control (DMSO). […] Pooled data from two independent experiments are shown. The dotted line corresponds to the average value obtained by MOCK after stimulation (0.43% of IFNγ^+CD8^+ T cells). Splenocytes were harvested on day 7 post-infection, followed by stimulation with 1 μg of IFNγ-ELISPOT-positive ZIKV-derived peptides in presence of Brefeldin A (BFA) and CD107a for 4 hours, and the production of IFNγ and TNFα was assessed via ICS. […]

[2] = tested on: CD8+ T cells; experiment: ICS, LysMCre+IFNARfl/fl mice; type: cell-based, mouse; details: LysMCre+IFNARfl/fl mice infected with MR766 or FSS13025
Procedure: (§1) For intracellular cytokine staining (ICS), splenocytes were counted after red blood cell lysis and resuspended in 10% FBS/RPMI medium at 40×10^6 cells per ml. Splenocytes (2×10^6) were plated and stimulated with 1 μg of individual peptide as previously detailed (Elong Ngono et al., 2016). Positive (PMA-Ionomycin) and negative (No stimulation) controls were added for all experiments. Cells were labeled with anti-CD3 (Clone 145-2C11), anti-CD8 (clone 53-67), anti-CD44 (clone IM7), and anti-CD62L (clone Mel-14). Cells then were fixed and permeabilized, followed by staining with anti-granzyme B (clone NGZB), anti-IFNγ (clone XMG 1.2) and anti-TNFα(clone MP6-XT22). Samples were read on an LSR II (BD Biosciences) and were analyzed using FLOWJO™ software X 10.0.7 (Tree Star, Ashland, Oreg.).
The following results are with reference to FIG. 3A and FIG. 3B, where five-week-old LysMCre^+IFNAR^fl/fl were infected retro-orbitally with 10^4 FFU of ZIKV MR766 or FSS13025. […] A total of 244 peptides from ZIKV strains predicted to bind H-2Kb and H-2db with high affinity were screened. Two independent experiments for each ZIKV strain (n=5 mice for each experiment) were performed in triplicate per peptide. The data are expressed as the mean of spot forming cells (SFC) per 10^6 CD8^+ T cells, and error bars are represented as SEM. […]

[3] = tested on: CD8+ T cells; experiment: Intracellular cytokine staining (ICS), WT C57BL/6 mice treated with IFNAR-blocking antibody; type: cell-based, mouse; details: splenocytes day 7 after MR766 or FSS13025; four peptides shared by both strains, NS31866-1874 MR766 only
Procedure: as §1
The following results are with respect to FIG. 7A to FIG. 7E, where WT C57BL/6 mice treated with type I IFN receptor-blocking antibody on day 1 prior to infection were inoculated with 10^4 FFU of ZIKV strain MR766 (n=3) or FSS (n=3), or injected with 10% FBS/PBS (MOCK, n=2). […] The data are expressed as the mean of spot forming cells (SFC) per 10^6 CD8^+ T cells. […] Splenocytes were harvested on day 7 post-infection, followed by stimulation with 1 μg of IFNγ-ELISPOT-positive ZIKV-derived peptides in presence of Brefeldin A (BFA) and CD107a for 4 hours, and the production of IFNγ and TNFα was assessed via ICS. […]

[4] = tested on: CD8+ T cells; details: H-2b restricted; cited from earlier work

ATMSYECPM [SEQ ID NO 19]
in vivo cytotoxicity against peptide-pulsed splenocytes [1]: high percentage of cytotoxicity

CAEAPNMKVI [SEQ ID NO 20]
in vivo cytotoxicity against peptide-pulsed splenocytes [1]: high percentage of cytotoxicity

IGVSNRDFV [SEQ ID NO 21]
immunodominance of epitopes (IFNγ+TNFα+ and CD107a+IFNγ+ ICS) [2]: immunodominant epitopes
frequency of IFNγ-producing CD8+ T cells (ICS) [3]: induced a high frequency of IFNγ-expressing cells
cross-reactivity with CD8+ T cells induced in DENV2-infected mice [4]: cross-reactive

PSVRNGNEI [SEQ ID NO 5]
frequency of IFNγ-producing CD8+ T cells (ICS) [3]: induced a high frequency of IFNγ-expressing cells
cross-reactivity with CD8+ T cells induced in DENV2-infected mice [4]: cross-reactive

SNRDFVEGM [SEQ ID NO 25]
in vivo cytotoxicity against peptide-pulsed splenocytes [1]: high percentage of cytotoxicity
